Test results as given in patent publication US5834284A, “N-acetylglucosaminyl transferase gene coding therefor and process for production thereof” (Suntory Limited, priority 1992, dated 1998).

What was measured:
[1] = biological target: T1, GnT-V expression product (Homo sapiens, UniProt Q09328); experiment: Enzyme activity of cloned GnT-V cDNA expressed in COS-1 cells; type: biochemical; conditions: supernatant of disrupted COS-1 cells
T1 sequence (Q09328 1-741): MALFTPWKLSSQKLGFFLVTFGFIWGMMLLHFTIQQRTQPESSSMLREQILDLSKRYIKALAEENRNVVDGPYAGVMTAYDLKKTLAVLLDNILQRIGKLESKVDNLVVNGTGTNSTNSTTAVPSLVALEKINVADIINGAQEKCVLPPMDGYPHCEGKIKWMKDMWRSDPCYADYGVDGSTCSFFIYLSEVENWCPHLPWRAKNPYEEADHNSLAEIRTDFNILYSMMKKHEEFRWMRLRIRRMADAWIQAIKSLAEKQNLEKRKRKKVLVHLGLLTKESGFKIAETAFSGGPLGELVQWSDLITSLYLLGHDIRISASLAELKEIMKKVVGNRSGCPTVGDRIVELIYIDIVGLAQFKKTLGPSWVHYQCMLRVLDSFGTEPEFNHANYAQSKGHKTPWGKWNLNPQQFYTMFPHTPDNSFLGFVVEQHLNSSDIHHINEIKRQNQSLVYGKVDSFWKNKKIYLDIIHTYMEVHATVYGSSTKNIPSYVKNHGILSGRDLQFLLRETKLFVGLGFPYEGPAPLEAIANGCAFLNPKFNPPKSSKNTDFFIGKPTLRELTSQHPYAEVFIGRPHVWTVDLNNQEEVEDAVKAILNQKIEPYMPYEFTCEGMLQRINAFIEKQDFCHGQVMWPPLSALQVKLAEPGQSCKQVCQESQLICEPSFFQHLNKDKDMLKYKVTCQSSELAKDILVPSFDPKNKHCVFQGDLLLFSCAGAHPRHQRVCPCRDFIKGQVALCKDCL
Method: The expression vector constructed in Example 8 was used to express the GnT-V cDNA fragment in animal cells and GnT-V activity of the expressed protein was tested.
Expression vector containing GnT-V cDNA fragment was transfected to COS-1 cells, animal cells for expression, by electroporation. Namely, about 5×10^6 CO.S-1 cells previously prepared were suspended in HEPES buffer (50 mM Hepes, 137 mM NaCl, 5 mM KCl, 0.7 mM NaHPO3, 6 mM dextrose, pH 7.05), 60 μg of the above-mentioned plasmid was added thereon, and 800 μl of the suspension was subjected to electroporation in an electroporator (Bio-Rad) at 250V, […]. Next, all the suspensions of COS-1 cells electroporated with GnT-V gene was plated in a petri dish having the diameter of 6 cm, and cultured at 37° C. in 5% CO2 for 48 hours. The cultured ceils were collected with a rubber-coated police man bar, and suspended in 50 μl of PBS buffer, and the cells were disrupted with a sonicator. Next, the disruptant was centrifuged to collect a supernatant, and 15 μl of the supernatant was used to assay enzyme activity.

[2] = biological target: T2, GnT-V (β1,6-N-acetylglucosaminyl transferase) (Homo sapiens, UniProt Q09328); experiment: GnT-V enzyme activity assay with fluorescence-labeled sugar acceptors, product separated by HPLC; type: biochemical
T2 construct: 73/60 kDa
T2 sequence (Q09328 31-741): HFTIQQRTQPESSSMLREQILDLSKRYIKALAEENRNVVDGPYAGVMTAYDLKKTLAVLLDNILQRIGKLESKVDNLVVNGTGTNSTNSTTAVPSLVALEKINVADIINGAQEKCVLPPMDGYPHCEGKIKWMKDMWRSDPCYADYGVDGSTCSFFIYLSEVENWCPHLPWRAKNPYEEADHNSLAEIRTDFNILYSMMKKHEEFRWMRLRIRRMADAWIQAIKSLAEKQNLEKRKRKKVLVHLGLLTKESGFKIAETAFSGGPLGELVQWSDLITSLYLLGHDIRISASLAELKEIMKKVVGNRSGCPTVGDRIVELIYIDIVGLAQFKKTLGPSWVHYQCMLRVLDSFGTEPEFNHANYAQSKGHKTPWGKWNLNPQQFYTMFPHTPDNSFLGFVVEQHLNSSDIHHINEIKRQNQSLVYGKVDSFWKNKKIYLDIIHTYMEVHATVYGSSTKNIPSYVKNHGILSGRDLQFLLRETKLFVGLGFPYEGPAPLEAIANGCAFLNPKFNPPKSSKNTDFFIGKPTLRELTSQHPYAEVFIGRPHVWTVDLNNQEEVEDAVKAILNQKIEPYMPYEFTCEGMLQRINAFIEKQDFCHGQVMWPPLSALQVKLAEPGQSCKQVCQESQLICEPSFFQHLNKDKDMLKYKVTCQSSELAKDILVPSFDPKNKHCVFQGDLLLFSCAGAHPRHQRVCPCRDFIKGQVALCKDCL
Text: An enzyme activity can be easily assayed by labeling an acceptor with a radioisotope or with fluorescent substance, adding the enzyme and separating the reaction product by high performance liquid chromatography (HPLC). More specifically, the method reported by Tanigichi et al. (Taniguchi, N., Nishikawa, A., Fujii, S., and Gu. J., Methods Enzymol. 179, 397-408 (1989); Nishikawa, H., Gu, J., Fujii, S., and Tanigichi, N., Biochem. Biophys. Acta, 1035, 313-318 (1990)) may be followed.
Namely, the enzyme activity of GnT-V can be assayed using GnGn-2-aminopyridine (GnGn-bi-PA) as an acceptor, and UDP-GluNAc (Sigma) as a donor. Activity is shown by an amount of transferred N-acetylglucosamine/hour/mg protein. Note, an amount of protein can be measured according to a reported method (Redinbaugh, M. G., and Turley, R. B., Anal. Biochem. 153, 267-271 (1986)) using a BCA kit (Pierce Chemical Company, Rockford, Ill.) and using bovine serum albumin as a standard.
Substrate specificity was determined using the following compound as sugar acceptors according to the above-mentioned enzyme activity measuring method. [drawing 1]
GnGnF--, GnGF--, GGnF--, Gn(Gn)GnF--, Gn(Gn)Gn--, GG--, GnGn--, MM-- and GnM-- were isolated from the bovine IgG treated with anhydrous hydrazine and then labeled with a fluorescence label according to Hase et al. method (Hase, S., Ibuki, T., and Ikehara, T., J. Biochem. 95, 197-203 (1984). The purified GnT-V was diluted with PBS buffer to a final concentration of 0.1 mg protein/ml, and then reacted with each fluorescence-labeled sugar acceptor. A result is shown in Table 2.

Relative reaction rate ([2]; acceptor 70 μM, purified GnT-V 0.1 mg protein/ml, GnGn-bi-PA = 100): 100 | reactivity relative to GnGn-bi-PA acceptor taken as 100% ([2]; substrate specificity): 100%
Structure (SMILES): CC(=O)N[C@H]1[C@H](O[C@@H]([C@H](O)[C@H](CNc2ccccn2)NC(C)=O)[C@H](O)CO)O[C@H](CO)[C@@H](O[C@@H]2O[C@H](CO[C@H]3O[C@H](CO)[C@@H](O)[C@H](O)[C@@H]3O[C@@H]3O[C@H](CO)[C@@H](O)[C@H](O)[C@H]3NC(C)=O)[C@@H](O)[C@H](O[C@H]3O[C@H](CO)[C@@H](O)[C@H](O)[C@@H]3O[C@@H]3O[C@H](CO)[C@@H](O)[C@H](O)[C@H]3NC(C)=O)[C@@H]2O)[C@@H]1O [GnGn-bi-PA, GlcNAcβ1-2Manα1-3-(GlcNAcβ1-2Manα1-6)Manβ1-4GlcNAcβ1-4GlcNAc-2-aminopyridine]
conversion of substrate by expression product GnT-V (HPLC elution profile, FIG. 10) [1]: converts a substrate GnGn-bi-PA to a product GnGnGn-tri'-PA
